According to patent US20100093542A1, “HERBICIDE COMBINATION COMPRISING DIMETHOXYTRIAZINYL SUBSTITUTED DIFLUOROMETHANESULFONYLANILIDES” (BAYER CORPSCIENCE AG, priority 2008, published 2010):
Read-outs that look alike come from different tables or passages of the source.

How the values were obtained:
Experiment in all cases: Post-emergence action against weeds, greenhouse pot test, visual scoring
Type in all cases: in vivo
[1] = tested on: Alopecurus myosuroides (ALOMY); settings: 504 h, read-out: % activity found
Procedure: (§1) Seeds or rhizome pieces of mono- and dicotyledonous harmful and useful plants were placed in peat pots (diameter 4 cm) filled with sandy loam and then covered with soil. The pots were kept in a greenhouse under optimum conditions. In addition, harmful plants encountered in paddy rice cultivation were cultivated in pots with a water level 2 cm above the soil surface.
(§2) About three weeks after the start of the cultivation, the test plants were treated at the 2- to 3-leaf stage. The herbicides, formulated as powder or liquid concentrates, were, either alone or in the combinations according to the invention, sprayed in various dosages on to the green parts of the plants using an application rate of 600 l of water/ha (converted). For further cultivation of the plants, the pots were then again kept under optimum conditions in a greenhouse.
(§3) The visual scoring of the herbicidal effects was carried out in intervals up to 21 days after the treatment. Scoring was carried out in percent in comparison to the untreated control plants. 0%=no herbicidal activity, 100%=complete herbicidal activity=complete kill.
(§4) The percentages from the treatments with the herbicides alone (=individual application) and with the combinations according to the invention (=mixtures) were employed to calculate interactions using the method of Colby. When the observed efficacies of the mixtures exceed the formal sum of the values of the tests with individual applications, they also exceed the expected value according to Colby, which is calculated using the formula below (cf. S. R. Colby; in Weeds 15 (1967) pp. 20 to 22):
(§5) Here: • A, B=activity of components A and B in percent at a dosage of a and b g of ai/ha (=gramm of active substance per hectare), respectively. • E=expected value in % at a dosage of a+b g of ai/ha.

Avena fatua (AVEFA) = settings: read-out: % activity found
Procedure: as §1, §2, §3, §4, §5

[2] = tested on: Lolium multiflorum (LOLMU); settings: 504 h, read-out: % activity found
Procedure: as §1, §2, §3, §4, §5

Setaria viridis (SETVI) = settings: 504 h, read-out: % activity found
Procedure: as §1, §2, §3, §4, §5

Zea mays (ZEAMX) = settings: read-out: % activity found
Procedure: as §1, §2, §3, §4, §5

[3] = tested on: Abuthilon theophrasti (ABUTH); settings: Abutilon theophrasti, 240 h, read-out: % activity found
Procedure: as §1, §2, §3, §4, §5

[4] = tested on: Amaranthus retroflexus (AMARE); settings: read-out: % activity found
Procedure: as §1, §2, §3, §4, §5

[5] = tested on: Cyperus esculentus (CYPES); settings: 504 h, read-out: % activity found
Procedure: as §1, §2, §3, §4, §5

[6] = tested on: Fallopia (ex Polygonum) convolvulus (POLCO); settings: read-out: % activity found
Procedure: as §1, §2, §3, §4, §5

[7] = tested on: Matricaria inodora (MATIN); settings: Tripleurospermum inodorum, read-out: % activity found
Procedure: as §1, §2, §3, §4, §5

Oryza sativa (ORYSA) = settings: read-out: % activity found
Procedure: as §1, §2, §3, §4, §5

[8] = tested on: Pharbitis purpurea (PHBPU); settings: Ipomoea purpurea, read-out: % activity found
Procedure: as §1, §2, §3, §4, §5

[9] = tested on: Triticum aestivum (TRZAS); settings: 240 h, read-out: % activity found
Procedure: as §1, §2, §3, §4, §5

Viola tricolor (VIOTR) = settings: read-out: % activity found
Procedure: as §1, §2, §3, §4, §5

SMILES: CS(=O)(=O)c1ccc(C(=O)C2C(=O)CCCC2=O)c(Cl)c1 [B3-2, 2-[2-chloro-4-(methylsulfonyl)benzoyl]-1,3-cyclohexanedione]
- inhibition at 70 g/ha [1]: 0%
- inhibition at 210 g/ha [1]: 20%
- inhibition at 70 g/ha (Avena fatua (AVEFA); 240 h): 0%
- inhibition at 70 g/ha (Avena fatua (AVEFA); 504 h): 0%
- inhibition at 210 g/ha (Avena fatua (AVEFA); 504 h): 0%
- inhibition at 70 g/ha [2]: 0%
- inhibition at 70 g/ha (Setaria viridis (SETVI)): 0%
- inhibition at 210 g/ha (Setaria viridis (SETVI)): 20%
- inhibition at 70 g/ha (Zea mays (ZEAMX); 240 h): 0%
- inhibition at 210 g/ha (Zea mays (ZEAMX); 240 h): 0%
- inhibition at 70 g/ha (Zea mays (ZEAMX); 504 h): 0%
- inhibition at 210 g/ha (Zea mays (ZEAMX); 504 h): 0%

SMILES: CCSC(C)CC1CC(=O)C(/C(CC)=N/OC/C=C/Cl)=C(O)C1 (racemic) [B2-3, (E,E)-(±)-2-[1-[[(3-chloro-2-propenyl)oxy]imino]propyl]-5-[2-(ethylthio)propyl]-3-hydroxy-2-cyclohexen-1-one]
- inhibition at 20 g/ha [3]: 0%
- inhibition at 60 g/ha [3]: 0%
- inhibition at 20 g/ha ([4]; 240 h): 0%
- inhibition at 60 g/ha ([4]; 240 h): 0%
- inhibition at 20 g/ha ([4]; 504 h): 0%
- inhibition at 60 g/ha ([4]; 504 h): 0%
- inhibition at 20 g/ha (Avena fatua (AVEFA); 504 h): 50%
- inhibition at 20 g/ha [5]: 0%
- inhibition at 60 g/ha [5]: 0%
- inhibition at 20 g/ha ([6]; 240 h): 0%
- inhibition at 60 g/ha ([6]; 240 h): 0%
- inhibition at 20 g/ha ([6]; 504 h): 0%
- inhibition at 60 g/ha ([6]; 504 h): 0%
- inhibition at 60 g/ha ([7]; 240 h): 0%
- inhibition at 20 g/ha ([7]; 504 h): 0%
- inhibition at 60 g/ha ([7]; 504 h): 0%
- inhibition at 20 g/ha (Oryza sativa (ORYSA); 240 h): 90%
- inhibition at 20 g/ha (Oryza sativa (ORYSA); 504 h): 95%
- inhibition at 20 g/ha ([8]; 240 h): 0%
- inhibition at 60 g/ha ([8]; 240 h): 0%
- inhibition at 20 g/ha ([8]; 504 h): 0%
- inhibition at 60 g/ha ([8]; 504 h): 0%
- inhibition at 20 g/ha [9]: 40%
- inhibition at 20 g/ha (Viola tricolor (VIOTR); 240 h): 0%
- inhibition at 60 g/ha (Viola tricolor (VIOTR); 240 h): 0%
- inhibition at 20 g/ha (Viola tricolor (VIOTR); 504 h): 0%
- inhibition at 60 g/ha (Viola tricolor (VIOTR); 504 h): 0%
- inhibition at 60 g/ha (Zea mays (ZEAMX); 240 h): 80%
